According to ChEMBL document CHEMBL2176866, “Progress in the development and application of small molecule inhibitors of bromodomain-acetyl-lysine interactions” (J Med Chem, 2012):

Experiments:
[1] = AUC (infinity) in mouse; assay type: ADME, organism-based; parameters: time infinity; details: plasma
[2] = Half life in mouse; assay type: ADME, organism-based; details: in vivo

| SMILES | AUC(0-inf) [1] [µM·h] | half-life [2] [h] |
| --- | --- | --- |
| COc1cc2c(cc1-c1c(C)noc1C)ncc1[nH]c(=O)n([C@H](C)c3ccccn3)c12 | 680 | 7.2 |
| CCNC(=O)C[C@@H]1N=C(c2ccc(Cl)cc2)c2cc(OC)ccc2-n2c(C)nnc21 [MOLIBRESIB] | 40 | 1.6 |
